US7662941B2, “Embryonic stem cell self maintenance and renewal reporter” (The Trustees of the University of Princeton - Princeton …, priority 2005, dated 2010)
Read-outs that look alike come from different tables or passages of the source.

What was measured:
Format in all cases: cell-based, mouse
ES cells = test system: ES cells
[1] = test system: Nanog/GFP expression in NeFREC(g); assay: Chemical genomics screen in NeFREC(g), ES medium without LIF, Nanog/GFP by flow cytometry; details: for Effect on RA-induced Nanog/GFP downregulation: agent plus RA compared to RA-induced differentiation condition; for Effect on Nanog/GFP expression / ES cell differentiation induced by omission of LIF: compound alone in ES medium without LIF, one and two days
Procedure: To validate the use of NeFRECs as an easy reporter cell in chemical genomics proof-of-principle studies were performed with several compounds that are known to show effects on ES cell self-renewal and differentiation or were previously tested in early embryonic development and cancer therapy. The compounds included in the experiment were RA (Sigma, Cat# R2625), Trichostatin A (TSA, Sigma, Cat# T8552, a histone deacetylase (HDAC) inhibitor), Ly294002, (CALBIOCHEM, Cat# 440202, a phosphatidylinositol 3-kinase (PI3K) inhibitor), Rapamycin (Rapa, Sigma, Cat# R0395, an inhibitor of mTOR), PD98059 (CALBIOCHEM, Cat# 513000, a MAP kinase (MAPK) inhibitor), 5-aza-2′-deoxycytidine (AZA, Sigma, Cat# A3656, an inhibitor of DNA methytransferases).
(§1) For the chemical genomics screen 2.5×10^4 cells in 0.5 ml ES medium were plated per 24-well the day before treatment. Medium without LIF supplemented with the different compounds at indicated concentrations was added 24 hrs post-plating. Medium was changed daily. Nanog/GFP levels for each sample were measured by flow cytometry one and two days post drug treatment. Average percentages of Nanog/GFP^+ cells were calculated from duplicate samples (FIG. 10A).

NeFREC(g) = assay: Cell morphology of NeFREC(g) after compound treatment; details: day 2 of treatment
Procedure: Microscopy. Microscopy was performed on a Nikon Eclipse TE2000-U microscope with appropriate filter sets, CoolSnapES (black and white/fluorescence) and DXM1200F (color) cameras, and MetaView (black and white/fluorescence) and ACT (color) image-processing software.
as §1
Addition of RA, LY294002 or PD98059 to the cultures has different effects on ES cell colony morphology.

[2] = test system: Nanog/GFP expression in NeFREC(g); assay: Nanog/GFP expression of NeFREC(g) clones in response to RA, flow cytometry
Procedure: ES cell growth and differentiation. ES cells were maintained on gelatin-coated tissue culture plates in Dulbecco's Modified Eagels Medium (DMEM; Invitrogen/Gibco) supplemented with 15% fetal calf serum (FCS), 1 mM sodium pyruvate, 2 mM L-glutamine (Invitrogen/Gibco), 0.1 mM non-essential amino acids (Invitrogen/Gibco), 100 U/ml penicillin, 100 μg/ml streptomycin, 1×10^−4 M 2-Mercaptoethanol (2-ME) and 1000 U/ml leukemia inhibitory factor (LIF; ESGROW, Chemicon), henceforth referred to as ES medium. Medium was changed every day and cells were split every second day.
One day prior to differentiation cells were plated on gelatinized culture dishes in the aforementioned medium. Differentiation was induced either by removal of LIF or removal of LIF and addition of retinoic acid (RA, Sigma) if grown in ES medium or either LIF or Bmp4 or both if grown in SF-ES medium.
Cell surface staining, FACS analysis and Cell Sorting. Standard conditions were used to stain the cells. Cell suspensions were analyzed on a FACS Sort (Becton Dickinson). Cell sorting was performed using a FacsVantage with DiVa Software (Becton Dickinson).
NeFREC(g) clones. To determine the dynamics of Nanog/GFP expression of NeFREC(g) clones in response to RA, 4 individual clones (numbers 4, 9, 20 and 23) were analyzed in detail (FIG. 6a upper panel). 2.5×10^4 cells were plated in 0.5 ml ES medium the day before RA treatment. ES medium without LIF and supplemented with 10 μM RA (10 mM stock dissolved in 100% ethanol) was added to cells 24 hours post-plating (indicated as day 0). Nanog/GFP levels in treated cells were measured daily, day 0 to day 3, by flow cytometry. […] By day 3, less than 5% cells remain Nanog/GFP+ in response to RA treatment. […] Eef1b gene expression was used as loading control (5′-[…]-3′ (SEQ ID NO:17) and 5′-[…]-3′ (SEQ ID NO:18)).
To further determine the dynamics of Nanog/GFP expression of NeFREC(g), a RA dosage response experiment, ranging from 0.2 to 10 μM RA, was performed (FIG. 6B). An RA dosage of 0.2 μM is sufficient to induces a rapid and significant downregulation of Nanog/GFP expression in NeFREC(g). Omitting LIF from the ES medium also induces loss of Nanog/GFP expression in these cells at a slower rate compared to RA treatment. Forty percent of the cells still remain Nanog/GFP^+ by day 3. A RA pulse experiment was performed to determine the time required to initiate Nanog/GFP downregulation (i.e. differentiation) in response to 1 μM of RA (FIG. 6C). 2.5×10^4 cells were plated initially in 0.5 ml media per well in a 24-well plate the day before treatment. Cells were pulsed with 1 μM RA in ES medium without LIF for the indicated time periods and then changed to fresh ES medium. Nanog/GFP expression was measured after one day and two days of RA treatment.

[3] = test system: Nanog/GFP expression in NeFREC(g); assay: Combinatorial RA and TSA treatment of NeFREC(g), Nanog/GFP by flow cytometry
Procedure: In brief, 2.5×10^4 cells were plated in 0.5 ml ES medium. The HDAC inhibitor TSA was added at various concentrations 24 hours post-plating. One day after TSA treatment, medium was changed to ES medium without LIF plus 1.0 μM RA (indicated as day 0). Medium was changed and Nanog/GFP expression monitored by flow cytometry on a daily basis. […] 75 nM TSA rescued Nanog/GFP levels by more than 50% by day 2.

[4] = test system: Nanog/GFP expression in NeFREC(g); assay: Transient RNA shRNA transfection of NeFREC(g), Nanog/GFP by flow cytometry; details: for Nanog/GFP expression (NeFREC(g) bearing Nanog/GFP): by three days, from 90.9%
Procedure: (§2) RNA shRNA Transfection. For transfection of RNA shRNA, cells were harvested, washed with DMEM and resuspended at 2×10^5/ml in medium without penicillin and streptomycin. 250 μl of medium without penicillin and streptomycin was added per gelatin pre-coated well of a 24-well culture plate. In order to prepare the RNA shRNA transfection mixture per well, 10-20 μl of RNA shRNA [1 pmole/μl] was mixed with OptiMEM (Invitrogen/Gibco) in a final volume of 50 μl. In a separate tube, 1 μl Lipofectamine2000 (Invitrogen) was added to 49 μl of OptiMEM per sample. The RNA shRNA/OptiMEM and Lipofectamine/OptiMEM solutions were combined, mixed, incubated for 20 min at room temperature and added to the well. Then, 250 μl of cell solution, i.e., 5×10^4 cells/well, were added and the 24-well plate incubated in a humidified chamber in 5% CO2/air mixture at 37° C. Twenty-four hours after transfection, medium was replaced with appropriate medium with penicillin and streptomycin.
RNA shRNA against GFP (5′-[…] UAGACGUUGUGGCUGU-3′; SEQ ID NO:31) was transfected into NeFREC(g) as described in Example 1. Ten pmole of RNA shRNA against GFP reduced Nanog/GFP reporter expression in NeFREC(g) from 85.8% down to 18% 72 hours post-transfection (FIG. 11A). The reduction in Nanog/GFP fluorescence is RNA shRNA concentration-dependent.
The transcription factor Pou5f1 is required for ES cell maintenance and when reduced by more than 50% of wild-type levels results in differentiation towards trophectodermal cells (Niwa et al., 2000 Nat. Genet. 24:372-376). Therefore, 10 pmole of RNA shRNA against Pou5f1 (5′-[…] UAAGGCUGAGCUGCAA-3′; SEQ ID NO:32) was transfected into NeFREC(g).

[5] = test system: Nanog/GFP expression in NeFREC(g)-SF; assay: Transient RNA shRNA transfection of NeFREC(g)-SF, Nanog/GFP by flow cytometry; details: NeFREC(g)-SF in SF-ES medium, by day 2; from 94.8%
Procedure: Alternatively, ES cells were maintained on gelatin-coated tissue culture plates in a 1:1 mixture of Neurobasal with N2-supplement (Invitrogen/Gibco) and DMEM/F12 with B27 (Invitrogen/Gibco) supplemented with 10% fraction V bovine serum albumin (BSA; Sigma) and 100 U/ml penicillin, 100 μg/ml streptomycin, 1×10^−4 M 2-ME), 1000 U/ml LIF and 10 ng/ml bone morphogenic protein (Bmp) 4 (R&D Systems), henceforth referred to as SF-ES medium. Medium was changed every day and cells split every second day.
as §2, with “Twenty-four hours after transfection, medium was replaced with appropriate medium with penicillin and streptomycin.” left out

Nc1ncn([C@H]2C[C@H](O)[C@@H](CO)O2)c(=O)n1 [AZA, 5-aza-2′-deoxycytidine]
Cell death as indicated by floating cells in culture (ES cells): can cause cell death at too high concentrations
Effect on RA-induced Nanog/GFP downregulation [1]: delay RA-induced Nanog/GFP downregulation
Effect on Nanog/GFP expression / ES cell differentiation induced by omission of LIF [1]: blocked or delayed ES cell differentiation

COc1cccc(-c2cc(=O)c3ccccc3o2)c1N [PD98059]
ES cell colony morphology (NeFREC(g)): look more like NeFREC(g) cultured in ES medium alone
Effect on RA-induced Nanog/GFP downregulation [1]: delay RA-induced Nanog/GFP downregulation
Effect on Nanog/GFP expression / ES cell differentiation induced by omission of LIF [1]: blocked or delayed ES cell differentiation

CC1=C(/C=C/C(C)=C/C=C/C(C)=C/C(=O)O)C(C)(C)CCC1 [RA, retinoic acid]
cells remaining Nanog/GFP+ ([2]; 10 μM RA, ES medium without LIF, by day 3): less than 5%
GFP levels after RA pulse ([2]; 24-hour treatment with 1 μM RA in ES medium without LIF, then fresh ES medium, from more than 90%): 45%
NeFREC(g)s in which the differentiated state is irreversibly fixed ([2]; after 24-hour differentiation pulse, 1 μM RA): about 50%
RA dosage sufficient to induce rapid and significant downregulation of Nanog/GFP expression ([2]; dosage response 0.2 to 10 μM RA): 0.2 µM

CC(/C=C/C(=O)NO)=C\[C@@H](C)C(=O)c1ccc(N(C)C)cc1 [TSA, Trichostatin A]
Concentration sufficient to kill all ES cells (ES cells; by day 3 of culture): 300 nM
Cell death as indicated by floating cells in culture (ES cells; too high concentrations): can cause cell death at too high concentrations
Rescue of Nanog/GFP levels ([3]; 75 nM TSA, then 1.0 μM RA, by day 2): more than 50%
TSA concentrations at which RA-induced downregulation of Nanog/GFP is markedly reduced ([3]; TSA 24 h, then ES medium without LIF plus 1.0 μM RA): higher than 75 nM
Effect on RA-induced Nanog/GFP downregulation [1]: delay RA-induced Nanog/GFP downregulation
Effect on Nanog/GFP expression / ES cell differentiation induced by omission of LIF [1]: blocked or delayed ES cell differentiation

B1: RNA shRNA against Pou5f1: RNA shRNA against Pou5f1, SEQ ID NO:32 (nucleic acid)
chain: GCAGCUCAGCCUUAAGAACAUGUGUAAGCUUUGGAGCUUACACAUGUUCUUAAGGCUGAGCUGCAA
modifications: siRNA; RNA, backbone not given here; hairpin shRNA transfected as RNA
Nanog/GFP expression (NeFREC(g) bearing Nanog/GFP) ([4]; 10 pmole RNA shRNA): 73.1%
Nanog/GFP levels [5]: 68.5%

B2: RNA shRNA against GFP: RNA shRNA against GFP, SEQ ID NO:31 (nucleic acid)
chain: AGCCACAACGUCUAUAUCAUGGCCGACAAGUUGGCUUGUCGGCCAUGAUAUAGACGUUGUGGCUGU
modifications: siRNA; RNA, backbone not given here; hairpin shRNA transfected as RNA
Concentration dependence of reduction in Nanog/GFP fluorescence ([4]; 0 to 10 pmole RNA shRNA): concentration-dependent
Nanog/GFP reporter expression ([4]; 10 pmole RNA shRNA, 72 hours post-transfection, from 85.8%): 18%
Nanog/GFP expression (NeFREC(g) bearing Nanog/GFP) ([4]; 10 pmole RNA shRNA): 21.2%
Nanog/GFP levels [5]: 14.1%
